Results reported in patent publication US20240270762A1, “PENICILLIN-BINDING PROTEIN INHIBITORS” (priority 2021, published 2024).

Key:
[1] = target: T1, PBP3 from Acinetobacter baumannii (ATCC 19606) (Acinetobacter baumannii, UniProt A0ABX6CK25); test: Bocillin-FL fluorescence polarization competition binding, A. baumannii PBP3; details: fluorescence polarization competition binding assay using Bocillin-FL; read-out: A. baumannii PBP3 Potency
T1 sequence (A0ABX6CK25 64-610): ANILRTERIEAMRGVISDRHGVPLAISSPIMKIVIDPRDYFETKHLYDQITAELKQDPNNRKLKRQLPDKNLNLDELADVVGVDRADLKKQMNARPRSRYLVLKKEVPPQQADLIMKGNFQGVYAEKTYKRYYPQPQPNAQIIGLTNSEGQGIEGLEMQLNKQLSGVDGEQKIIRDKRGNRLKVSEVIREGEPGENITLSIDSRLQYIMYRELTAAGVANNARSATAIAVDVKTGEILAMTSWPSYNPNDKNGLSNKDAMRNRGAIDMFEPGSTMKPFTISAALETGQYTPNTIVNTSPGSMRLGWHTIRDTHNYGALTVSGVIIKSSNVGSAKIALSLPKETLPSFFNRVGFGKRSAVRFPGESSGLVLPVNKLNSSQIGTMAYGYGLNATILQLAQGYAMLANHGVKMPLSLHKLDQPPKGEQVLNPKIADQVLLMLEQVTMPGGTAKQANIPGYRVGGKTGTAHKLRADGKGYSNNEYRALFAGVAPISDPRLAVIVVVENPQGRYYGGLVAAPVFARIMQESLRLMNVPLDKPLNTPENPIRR
Excerpt: To determine the ability of boronic acid-based test PBP inhibitors to bind Penicillin Binding Proteins (PBPs), Bocillin-FL (fluorescently-labeled penicillin V; ThermoFisher Scientific) was used in a fluorescence polarization (FP) competition binding assay to assess inhibitor binding to PBP3 from Escherichia coli (K-12), PBP3 from Pseudomonas aeruginosa (PAO1), PBP1a and PBP3 from Acinetobacter baumannii (ATCC 19606), and PBP2 from Neisseria gonorrhoeae (FA19). PBPs were cloned and purified as described previously (E. coli PBP3, King, D. T, et al., ACS Infectious Diseases 2015, 1, 175-184; P. aeruginosa PBP3, Han et. al., PNAS 2010, 107 (51), 22002-22007; A. baumannii PBPs, Penwell et. al., Antimicrob. Agents Chemother. 2015, 59 (3), 1680-1689; N. gonorrhoeae PBP2, Singh et. al., J. Biol. Chem. 2019, 294 (38), 14020-14032). To establish assay conditions for competition binding, enzyme titration/saturation binding experiments were initially performed. Bocillin-FL was prepared at 0.2 μM in a buffer comprised of 50 mM Hepes (pH 8.0), 300 mM NaCl and 10% (v/v) glycerol for reactions with E. coli, P. aeruginosa and N. gonorrhoeae PBPs, and 25 mM Tris (pH 8.0), 200 mM NaCl, 10% (v/v) glycerol and 0.005% (v/v) Tween 20 for reactions with A. baumannii PBPs. Saturation binding was performed by mixing 40 μl of PBP solutions ranging in concentrations from 0-24 μM with 40 μl of the 0.2 μM Bocillin-FL solution, in individual wells of a black 384-well microplate. FP was measured immediately upon mixing (Excitation, 490 nm; Emission, 520 nm; g-factor, 0.96), using a Cytation3 (BioTek) microplate reader and measured continuously for up to 120 minutes. The FP response stabilized after 15 minutes for P. aeruginosa and A. baumannii PBP3, 30 minutes for E. coli PBP3 and A. baumannii PBP1a, and less than 1 minute for N. gonorrhoeae PBP2. […] The competition binding assay (80 μl final volume) was validated using beta-lactams and PBPs at final concentrations of: 1.5 μM for E. coli PBP3; 0.75 μM for P. aeruginosa PBP3; 1 μM for A. baumannii PBP1a; 0.2 μM for A. baumannii PBP3; and 0.25 μM for N. gonorrhoeae PBP2. Bocillin-FL was at 0.1 μM (0.05 μM with A. baumannii PBP1a) and beta-lactam concentrations ranged from 0-1,000 μM. E. coli PBP3 was incubated with increasing concentrations of ampicillin in a black 384-well microplate (Corning) for 30 minutes. P. aeruginosa PBP3 was incubated for 15 minutes with aztreonam, whereas A. baumannii PBP1a and PBP3 were incubated for 15 minutes with meropenem, and then Bocillin-FL was added followed immediately by the FP measurement for up to 60 minutes. […] The beta-lactam potency was reported as the concentration of beta-lactam required to reduce the amount of PBP bound-Bocillin-FL by 50% (EC50). […] The EC50 of aztreonam was determined to be <0.5 μM for P. aeruginosa PBP3. […] Binding assays for boronic acid PBP inhibitors were performed in an identical fashion for the respective PBPs.

P. aeruginosa ATCC 27853 = test: microbe, parasite or virus in culture; type: cell-based; details: Pseudomonas aeruginosa, ATCC27853, read-out: Minimum inhibitory concentration, P. aeruginosa ATCC 27853
A. baumannii ATCC 17978 = test: microbe, parasite or virus in culture; type: cell-based; details: Acinetobacter baumannii, ATCC17978, read-out: MIC, A. baumannii ATCC 17978
A. baumannii ATCC 19606 = test: microbe, parasite or virus in culture; type: cell-based; details: Acinetobacter baumannii, ATCC19606, read-out: MIC, A. baumannii ATCC 19606
P. aeruginosa ATCC 35151 = test: microbe, parasite or virus in culture; type: cell-based; details: Pseudomonas aeruginosa, ATCC35151, read-out: Minimum inhibitory concentration, P. aeruginosa ATCC 35151
[2] = tested on: P. aeruginosa (ΔmexAB-oprM); test: Broth microdilution MIC in iron-depleted CAMHB (IDM); type: cell-based; details: Pseudomonas aeruginosa, read-out: Minimum inhibitory concentration, P. aeruginosa ΔmexAB-oprM
P. aeruginosa CDC-0054 = test: microbe, parasite or virus in culture; type: cell-based; details: Pseudomonas aeruginosa, CDC0054, read-out: Minimum inhibitory concentration, P. aeruginosa CDC-0054
P. aeruginosa CDC-0090 = test: microbe, parasite or virus in culture; type: cell-based; details: Pseudomonas aeruginosa, CDC0090, read-out: Minimum inhibitory concentration, P. aeruginosa CDC-0090
P. aeruginosa CDC-0095 = test: microbe, parasite or virus in culture; type: cell-based; details: Pseudomonas aeruginosa, CDC0095, read-out: Minimum inhibitory concentration, P. aeruginosa CDC-0095
A. baumannii 1258916 = test: microbe, parasite or virus in culture; type: cell-based, Acinetobacter baumannii; details: Acinetobacter baumannii, 1258916, read-out: MIC, A. baumannii 1258916
A. baumannii CDC-0033 = test: microbe, parasite or virus in culture; type: cell-based; details: Acinetobacter baumannii, CDC0033, read-out: MIC, A. baumannii CDC-0033
A. baumannii CDC-0036 = test: microbe, parasite or virus in culture; type: cell-based; details: Acinetobacter baumannii, CDC0036, read-out: MIC, A. baumannii CDC-0036
A. baumannii CDC-0045 = test: microbe, parasite or virus in culture; type: cell-based; details: Acinetobacter baumannii, CDC0045, read-out: MIC, A. baumannii CDC-0045
A. baumannii CDC-0083 = test: microbe, parasite or virus in culture; type: cell-based; details: Acinetobacter baumannii, CDC0083, read-out: MIC, A. baumannii CDC-0083
[3] = tested on: B. thailandensis ATCC 700388; test: microbe, parasite or virus in culture; type: cell-based; details: Burkholderia thailandensis, ATCC700388, read-out: Minimum inhibitory concentration (MIC), B. thailandensis ATCC 700388
[4] = tested on: B. humptydooensis ATCC BAA-2767; test: microbe, parasite or virus in culture; type: cell-based; details: Burkholderia humptydooensis, ATCCBAA2767, read-out: Minimum inhibitory concentration (MIC), B. humptydooensis ATCC BAA-2767
P. aeruginosa CDC-0110 = test: microbe, parasite or virus in culture; type: cell-based; details: Pseudomonas aeruginosa, CDC0110, read-out: Minimum inhibitory concentration, P. aeruginosa CDC-0110

O=C(O)c1c(F)ccc2c1OB(O)[C@@H](NC(=O)[C@@H](NC(=O)N1CCN(Cc3ccc(O)c(O)c3Cl)C(=O)C1=O)c1ccc(P(=O)(O)O)cc1)C2 (single isomer, unassigned) [Example 161]
> 128 µg/mL: MIC (P. aeruginosa CDC-0090) | MIC (A. baumannii 1258916) | MIC (A. baumannii CDC-0036) | MIC (A. baumannii CDC-0045)
2 to 4 µg/mL: MIC (P. aeruginosa ATCC 27853) | MIC [2]
8 to 16 µg/mL: MIC (A. baumannii CDC-0033) | MIC (A. baumannii CDC-0083)
< 10 µM: IC50 [1]
< 1 µg/mL: MIC (A. baumannii ATCC 17978) | MIC (A. baumannii ATCC 19606) | MIC (P. aeruginosa ATCC 35151) | MIC (P. aeruginosa CDC-0054) | MIC (P. aeruginosa CDC-0095) | MIC [3] | MIC [4] | MIC (P. aeruginosa CDC-0110)
